This is an account of results in ChEMBL document CHEMBL3608278 (J Med Chem, 2015).

For assay [1], the target named is T1, Potassium voltage-gated channel subfamily A member 3 (Homo sapiens, UniProt P22001). The format is cell-based, CHO-K1.
Assay [2] deals with T1, Potassium voltage-gated channel subfamily A member 3. Also on record: species or system Blood.
Assay [3] has the same target. The assay is described as follows: cell-based. Also on record: species or system Blood.

T1 sequence (P22001 whole entry): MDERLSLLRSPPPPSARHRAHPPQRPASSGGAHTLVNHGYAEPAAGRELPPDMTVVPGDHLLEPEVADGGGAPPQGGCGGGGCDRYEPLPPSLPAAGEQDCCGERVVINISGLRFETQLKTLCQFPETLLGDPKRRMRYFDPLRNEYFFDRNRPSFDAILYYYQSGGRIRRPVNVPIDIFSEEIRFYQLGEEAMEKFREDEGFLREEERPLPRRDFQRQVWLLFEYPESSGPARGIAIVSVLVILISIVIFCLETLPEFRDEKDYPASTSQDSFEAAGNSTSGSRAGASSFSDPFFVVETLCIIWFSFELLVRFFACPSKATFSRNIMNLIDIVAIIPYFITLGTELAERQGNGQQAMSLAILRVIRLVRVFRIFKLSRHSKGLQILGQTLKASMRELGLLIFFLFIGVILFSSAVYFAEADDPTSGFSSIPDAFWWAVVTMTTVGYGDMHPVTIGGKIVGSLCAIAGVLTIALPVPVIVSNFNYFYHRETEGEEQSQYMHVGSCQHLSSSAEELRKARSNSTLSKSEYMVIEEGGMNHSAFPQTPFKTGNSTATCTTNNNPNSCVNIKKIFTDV

A word on the IC50: it is the concentration that inhibits the measured activity by half. Low values mean higher potency, high ones lower potency. Turning to `CC[C@H](C)[C@@H]1NC(=O)[C@@H](NC(=O)[C@H](CO)NC(=O)[C@@H](N)CCCNC(=N)N)CSSC[C@@H](C(=O)O)NC(=O)[C@H]([C@@H](C)O)NC(=O)CNC(=O)[C@@H]2CSSC[C@@H]3NC(=O)[C@H](CCC(N)=O)NC(=O)[C@H](Cc4ccccc4)NC(=O)[C@H](C)NC(=O)[C@H]([C@@H](C)O)NC(=O)[C@H](CSSC[C@H](NC(=O)[C@H](Cc4ccccc4)NC(=O)[C@H](CO)NC(=O)[C@H](CC(C)C)NC(=O)[C@H](CCCNC(=N)N)NC(=O)[C@H](Cc4ccc(O)cc4)NC(=O)[C@H](CCCCN)NC(=O)[C@H](CCSC)NC(=O)[C@H](CO)NC(=O)[C@H](Cc4cnc[nH]4)NC(=O)[C@H](CCCCN)NC3=O)C(=O)N[C@@H](CCCNC(=N)N)C(=O)N[C@@H](CCCCN)C(=O)N[C@@H]([C@@H](C)O)C(=O)N2)NC(=O)[C@H](CCCNC(=N)N)NC(=O)[C@H](CO)NC(=O)[C@H](CCCCN)NC(=O)[C@@H]2CCCN2C(=O)[C@H](C)NC(=O)[C@H]([C@@H](C)O)NC(=O)[C@H](CC(=O)O)NC1=O`, the half-maximal inhibitory concentration (IC50) was found to be 0.201 nM in assay [1], 1.98 nM in assay [2] and 0.748 nM in assay [3].

Consider `CC[C@H](C)[C@@H]1NC(=O)[C@@H](NC(=O)[C@H](CO)NC(=O)[C@@H](N)CCCNC(=N)N)CSSC[C@@H](C(=O)O)NC(=O)[C@H]([C@@H](C)O)NC(=O)CNC(=O)[C@@H]2CSSC[C@@H]3NC(=O)[C@H](CCC(N)=O)NC(=O)[C@H](Cc4ccccc4)NC(=O)[C@H](C)NC(=O)[C@H]([C@@H](C)O)NC(=O)[C@H](CSSC[C@H](NC(=O)[C@H](Cc4ccccc4)NC(=O)[C@H](CO)NC(=O)[C@H](CC(C)C)NC(=O)[C@H](CCCNC(=N)N)NC(=O)[C@H](Cc4ccc(O)cc4)NC(=O)[C@H](CCCCN)NC(=O)[C@H](CCSC)NC(=O)[C@H](CCCCN)NC(=O)[C@H](Cc4cnc[nH]4)NC(=O)[C@H](CCCCN)NC3=O)C(=O)N[C@@H](CCCNC(=N)N)C(=O)N[C@@H](CCCCN)C(=O)N[C@@H]([C@@H](C)O)C(=O)N2)NC(=O)[C@H](CCCNC(=N)N)NC(=O)[C@H](CO)NC(=O)[C@H](CCCCN)NC(=O)[C@@H]2CCCN2C(=O)[C@H]([C@@H](C)CC)NC(=O)[C@H]([C@@H](C)O)NC(=O)[C@H](CC(=O)O)NC1=O`, for which the figures for the half-inhibitory concentration (IC50) in assay [1], in assay [2] and in assay [3] were 0.193 nM, 0.193 nM and 0.108 nM, respectively.

As for `CC[C@H](C)[C@@H]1NC(=O)[C@@H](NC(=O)[C@H](CO)NC(=O)[C@@H](N)CCCNC(=N)N)CSSC[C@@H](C(=O)O)NC(=O)[C@H]([C@@H](C)O)NC(=O)CNC(=O)[C@@H]2CSSC[C@@H]3NC(=O)[C@H](CCC(N)=O)NC(=O)[C@H](Cc4ccccc4)NC(=O)[C@H](C)NC(=O)[C@H]([C@@H](C)O)NC(=O)[C@H](CSSC[C@H](NC(=O)[C@H](Cc4ccccc4)NC(=O)[C@H](CO)NC(=O)[C@H](CC(C)C)NC(=O)[C@H](CCCNC(=N)N)NC(=O)[C@H](Cc4ccc(O)cc4)NC(=O)[C@H](CCCCN)NC(=O)[C@H](CCCCN)NC(=O)[C@H](CO)NC(=O)[C@H](Cc4cnc[nH]4)NC(=O)[C@H](CCCCN)NC3=O)C(=O)N[C@@H](CCCNC(=N)N)C(=O)N[C@@H](CCCCN)C(=O)N[C@@H]([C@@H](C)O)C(=O)N2)NC(=O)[C@H](CCCNC(=N)N)NC(=O)[C@H](CO)NC(=O)[C@H](CCCCN)NC(=O)[C@@H]2CCCN2C(=O)[C@H]([C@@H](C)CC)NC(=O)[C@H]([C@@H](C)O)NC(=O)[C@H](CC(=O)O)NC1=O`, the IC50 is 0.798 nM in assay [1], 4.82 nM in assay [2] and 3.59 nM in assay [3].

Turning to `CC[C@H](C)[C@@H]1NC(=O)[C@@H](NC(=O)[C@H](CO)NC(=O)[C@@H](N)CCCNC(=N)N)CSSC[C@@H](C(=O)O)NC(=O)[C@H]([C@@H](C)O)NC(=O)CNC(=O)[C@@H]2CSSC[C@@H]3NC(=O)[C@H](CCC(N)=O)NC(=O)[C@H](Cc4ccccc4)NC(=O)[C@H](C)NC(=O)[C@H]([C@@H](C)O)NC(=O)[C@H](CSSC[C@H](NC(=O)[C@H](Cc4ccccc4)NC(=O)[C@H](CCCCN)NC(=O)[C@H](CC(C)C)NC(=O)[C@H](CCCNC(=N)N)NC(=O)[C@H](Cc4ccc(O)cc4)NC(=O)[C@H](CCCCN)NC(=O)[C@H](CCSC)NC(=O)[C@H](CO)NC(=O)[C@H](Cc4cnc[nH]4)NC(=O)[C@H](CCCCN)NC3=O)C(=O)N[C@@H](CCCNC(=N)N)C(=O)N[C@@H](CCCCN)C(=O)N[C@@H]([C@@H](C)O)C(=O)N2)NC(=O)[C@H](CCCNC(=N)N)NC(=O)[C@H](CO)NC(=O)[C@H](CCCCN)NC(=O)[C@@H]2CCCN2C(=O)[C@H]([C@@H](C)CC)NC(=O)[C@H]([C@@H](C)O)NC(=O)[C@H](CC(=O)O)NC1=O`, the values for the 50% inhibitory concentration (IC50) in assay [1], in assay [2] and in assay [3] were 0.122 nM, 0.496 nM and 0.273 nM, respectively.

Turning to `CC[C@H](C)[C@@H]1NC(=O)[C@@H](NC(=O)[C@H](CO)NC(=O)[C@@H](N)CCCNC(=N)N)CSSC[C@@H](C(=O)O)NC(=O)[C@H]([C@@H](C)O)NC(=O)CNC(=O)[C@@H]2CSSC[C@@H]3NC(=O)[C@H](CCC(N)=O)NC(=O)[C@H](Cc4ccccc4)NC(=O)[C@H](C)NC(=O)[C@H]([C@@H](C)O)NC(=O)[C@H](CSSC[C@H](NC(=O)[C@H](CCCCN)NC(=O)[C@H](CO)NC(=O)[C@H](CC(C)C)NC(=O)[C@H](CCCNC(=N)N)NC(=O)[C@H](Cc4ccc(O)cc4)NC(=O)[C@H](CCCCN)NC(=O)[C@H](CCSC)NC(=O)[C@H](CO)NC(=O)[C@H](Cc4cnc[nH]4)NC(=O)[C@H](CCCCN)NC3=O)C(=O)N[C@@H](CCCNC(=N)N)C(=O)N[C@@H](CCCCN)C(=O)N[C@@H]([C@@H](C)O)C(=O)N2)NC(=O)[C@H](CCCNC(=N)N)NC(=O)[C@H](CO)NC(=O)[C@H](CCCCN)NC(=O)[C@@H]2CCCN2C(=O)[C@H]([C@@H](C)CC)NC(=O)[C@H]([C@@H](C)O)NC(=O)[C@H](CC(=O)O)NC1=O`, the IC50 came to 0.985 nM in assay [1], 11.8 nM in assay [2] and 3.49 nM in assay [3].

On to `CC[C@H](C)[C@@H]1NC(=O)[C@@H](NC(=O)[C@H](CO)NC(=O)[C@@H](N)CCCNC(=N)N)CSSC[C@@H](C(=O)O)NC(=O)[C@H]([C@@H](C)O)NC(=O)CNC(=O)[C@@H]2CSSC[C@@H]3NC(=O)[C@H](CCC(N)=O)NC(=O)[C@H](Cc4ccccc4)NC(=O)[C@H](C)NC(=O)[C@H]([C@@H](C)O)NC(=O)[C@H](CSSC[C@H](NC(=O)[C@H](Cc4ccccc4)NC(=O)[C@H](CO)NC(=O)[C@H](CC(C)C)NC(=O)[C@H](CCCNC(=N)N)NC(=O)[C@H](Cc4ccc(O)cc4)NC(=O)[C@H](CCCCN)NC(=O)[C@H](CCSC)NC(=O)[C@H](CO)NC(=O)[C@H](Cc4cnc[nH]4)NC(=O)[C@H](CCCCN)NC3=O)C(=O)N[C@@H](CCCCN)C(=O)N[C@@H](CCCCN)C(=O)N[C@@H]([C@@H](C)O)C(=O)N2)NC(=O)[C@H](CCCNC(=N)N)NC(=O)[C@H](CO)NC(=O)[C@H](CCCCN)NC(=O)[C@@H]2CCCN2C(=O)[C@H]([C@@H](C)CC)NC(=O)[C@H]([C@@H](C)O)NC(=O)[C@H](CC(=O)O)NC1=O`, for which the 50% inhibitory concentration (IC50) in assay [1] is 0.293 nM; in assay [2], 0.071 nM; in assay [3], 0.041 nM.

Consider `CC[C@H](C)[C@@H]1NC(=O)[C@@H](NC(=O)[C@H](CO)NC(=O)[C@@H](N)CCCNC(=N)N)CSSC[C@@H](C(=O)O)NC(=O)[C@H](CCCCN)NC(=O)CNC(=O)[C@@H]2CSSC[C@@H]3NC(=O)[C@H](CCC(N)=O)NC(=O)[C@H](Cc4ccccc4)NC(=O)[C@H](C)NC(=O)[C@H]([C@@H](C)O)NC(=O)[C@H](CSSC[C@H](NC(=O)[C@H](Cc4ccccc4)NC(=O)[C@H](CO)NC(=O)[C@H](CC(C)C)NC(=O)[C@H](CCCNC(=N)N)NC(=O)[C@H](Cc4ccc(O)cc4)NC(=O)[C@H](CCCCN)NC(=O)[C@H](CCSC)NC(=O)[C@H](CO)NC(=O)[C@H](Cc4cnc[nH]4)NC(=O)[C@H](CCCCN)NC3=O)C(=O)N[C@@H](CCCNC(=N)N)C(=O)N[C@@H](CCCCN)C(=O)N[C@@H]([C@@H](C)O)C(=O)N2)NC(=O)[C@H](CCCNC(=N)N)NC(=O)[C@H](CO)NC(=O)[C@H](CCCCN)NC(=O)[C@@H]2CCCN2C(=O)[C@H]([C@@H](C)CC)NC(=O)[C@H]([C@@H](C)O)NC(=O)[C@H](CC(=O)O)NC1=O`, for which the values for the IC50 in assay [1], in assay [2] and in assay [3] were 0.153 nM, 0.136 nM and 0.067 nM, respectively.

Take `CCCC[C@@H]1NC(=O)[C@H](CO)NC(=O)[C@H](Cc2c[nH]cn2)NC(=O)[C@H](CCCCN)NC(=O)[C@@H]2CSSC[C@@H]3NC(=O)[C@H]([C@@H](C)O)NC(=O)[C@H](CCCCN)NC(=O)[C@H](CCCNC(=N)N)NC(=O)[C@H](CSSC[C@H](NC(=O)[C@H](CCCNC(=N)N)NC(=O)[C@H](CO)NC(=O)[C@H](CCCCN)NC(=O)[C@@H]4CCCN4C(=O)[C@H]([C@@H](C)CC)NC(=O)[C@H]([C@@H](C)O)NC(=O)[C@H](CC(=O)O)NC(=O)[C@H]([C@@H](C)CC)NC(=O)[C@@H](NC(=O)[C@H](CO)NC(=O)[C@@H](N)CCCNC(=N)N)CSSC[C@@H](C(=O)N[C@@H](C)C(=O)O)NC(=O)[C@H]([C@@H](C)O)NC(=O)CNC3=O)C(=O)N[C@@H]([C@@H](C)O)C(=O)N[C@@H](C)C(=O)N[C@@H](Cc3ccccc3)C(=O)N[C@@H](CCCCN)C(=O)N2)NC(=O)[C@H](Cc2ccccc2)NC(=O)[C@H](CO)NC(=O)[C@H](CC(C)C)NC(=O)[C@H](CCCNC(=N)N)NC(=O)[C@H](Cc2ccc(O)cc2)NC(=O)[C@H](CCCCN)NC1=O`: the IC50 in assay [1] was 0.071 nM; in assay [2], 0.515 nM; in assay [3], 0.305 nM.
